Data on eight molecules can be found in patent EP3436445B1, “HISTONE DEMETHYLASE INHIBITORS” (Celgene Quanticel Research, Inc., priority 2016, dated 2017).

The term IC50 denotes the concentration at which inhibition is half-maximal. A higher IC50 goes with a need for much substance.

This assay deals with T1, PHF8 (Homo sapiens, UniProt Q9UPP1).
T1 construct: purchased Active Motif 31435
The assay can be described thus: PHF8 in vitro enzyme inhibition assay (TR-FRET). It counts as biochemical. The conditions noted are these: Table 3; 3 nM PHF8, H3K9me1-biotin labeled peptide. An excerpt: This assay determines the ability of a test compound to inhibit FBXL11, FBXL10, and PHF8 demethylase activity. Baculovirus expressed FBXL11 (GenBank Accession #NM_012308, AA1-1162) was purchased from BPS Bioscience (Cat#50102). Baculovirus expressed FBXL10 (GenBank Accession #NM_032590, AA 1-650) was purchased from BPS Bioscience (Cat #50120). Baculovirus expressed PHF8 (GenBank Accession NP_055922.1) was purchased from Active Motif (Cat#31435).
The ability of test compounds to inhibit the activity of PHF8 was determined in 384-well plate format under the following reaction conditions: 3 nM PHF8, 200 nM H3K9me1-biotin labeled peptide (Anaspec cat #64358), 0.5 µM alpha-ketoglutaric acid in assay buffer of 50 mM HEPES, pH7.3, 0.005% Brij35, 0.5 mM TCEP, 0.2 mg/ml BSA, 50 µM sodium L-ascorbate, and 5 µM ammonium iron(II) sulfate. Reaction product was determined quantitatively by TR-FRET after the addition of detection reagent Phycolink Streptavidin-allophycocyanin (Prozyme) and Europium-anti-unmodified-histone H3 lysine 9/lysine27 (H3K9/K27) antibody (PerkinElmer) in the presence of 5 mM EDTA in LANCE detection buffer (PerkinElmer) at a final concentration of 25 nM and 0.5 nM, respectively.
The assay reaction was initiated by the following: 2 µl of the mixture of 600 nM H3K9me1-biotin labeled peptide and 1.5 µM alpha-ketoglutaric acid with 2 µl of 11-point serial diluted inhibitor in 3% DMSO were added to each well of the plate, followed by the addition of 2 µl of 9 nM PHF8 to initiate the reaction. The reaction mixture was incubated at room temperature for 15 minutes, and terminated by the addition of 6 µl of 5 mM EDTA in LANCE detection buffer containing 50 nM Phycolink Streptavidin-allophycocyanin and 1 nM Europium-anti-unmodified H3K9/K27 antibody. Plates were read by EnVision Multilabel Reader in TR-FRET mode (excitation at 320 nm, emission at 615 nm and 665 nm) after 1 hour incubation at room temperature. A ratio was calculated (665/615) for each well and fitted to determine inhibition constant (IC50).
In general terms: In TR-FRET formats the signal depends on donor and acceptor labels being close together.

T1 sequence (Q9UPP1 37-1060): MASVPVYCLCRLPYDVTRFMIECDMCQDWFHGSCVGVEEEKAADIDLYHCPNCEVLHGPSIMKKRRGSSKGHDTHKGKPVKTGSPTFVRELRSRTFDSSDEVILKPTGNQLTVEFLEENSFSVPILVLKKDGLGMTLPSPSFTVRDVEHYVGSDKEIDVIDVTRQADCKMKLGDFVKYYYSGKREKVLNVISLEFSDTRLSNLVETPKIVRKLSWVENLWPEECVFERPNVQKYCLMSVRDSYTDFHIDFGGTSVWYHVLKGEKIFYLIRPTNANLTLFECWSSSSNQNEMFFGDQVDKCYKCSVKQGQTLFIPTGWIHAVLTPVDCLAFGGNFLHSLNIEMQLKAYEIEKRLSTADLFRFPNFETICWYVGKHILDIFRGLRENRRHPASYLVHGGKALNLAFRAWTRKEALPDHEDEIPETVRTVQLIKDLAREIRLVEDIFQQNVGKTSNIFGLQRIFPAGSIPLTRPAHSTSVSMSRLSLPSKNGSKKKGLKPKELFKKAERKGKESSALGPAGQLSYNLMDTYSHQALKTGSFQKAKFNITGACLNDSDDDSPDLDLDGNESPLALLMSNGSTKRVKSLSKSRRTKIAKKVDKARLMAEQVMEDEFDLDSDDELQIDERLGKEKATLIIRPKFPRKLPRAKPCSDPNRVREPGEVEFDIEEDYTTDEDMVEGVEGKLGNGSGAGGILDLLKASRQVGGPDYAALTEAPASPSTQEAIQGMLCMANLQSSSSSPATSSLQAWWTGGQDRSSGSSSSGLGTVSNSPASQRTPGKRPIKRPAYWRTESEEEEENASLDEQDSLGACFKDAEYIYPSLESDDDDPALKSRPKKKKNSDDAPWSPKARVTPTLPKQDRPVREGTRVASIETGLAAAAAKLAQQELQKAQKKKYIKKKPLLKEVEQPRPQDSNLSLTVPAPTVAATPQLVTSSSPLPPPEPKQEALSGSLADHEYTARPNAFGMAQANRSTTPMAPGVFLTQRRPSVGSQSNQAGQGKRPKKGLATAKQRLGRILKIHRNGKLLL

Molecule `c1ccc(Cn2cnc(-c3cc4[nH]nnc4cn3)c2)cc1` [Example 44, 1-benzyl-4-{1H-[1,2,3]triazolo[4,5-c]pyridin-6-yl}-1H-imidazole] came in with a half-inhibitory concentration (IC50) of 100 to 1000 nM.

Take `Clc1ccccc1Cn1cnc(-c2cc3[nH]nnc3cn2)c1` [Example 45, 1-[(2-chlorophenyl)methyl]-4-{1H-[1,2,3]triazolo[4,5-c]pyridin-6-yl}-1H-imidazole]: the IC50 fell in the range of 1000 to 10000 nM.

In turn, `Clc1cccc(Cn2cnc(-c3cc4[nH]nnc4cn3)c2)c1` [Example 46, 1-[(3-chlorophenyl)methyl]-4-{1H-[1,2,3]triazolo[4,5-c]pyridin-6-yl}-1H-imidazole] came in with an IC50 of 1000 to 10000 nM.

For the molecule `Clc1ccc(Cn2cnc(-c3cc4[nH]nnc4cn3)c2)cc1` [Example 47, 1-[(4-chlorophenyl)methyl]-4-{1H-[1,2,3]triazolo[4,5-c]pyridin-6-yl}-1H-imidazole], the IC50 lay within 1000 to 10000 nM.

On to `Clc1ccc(Cn2cnc(-c3cc4[nH]nnc4cn3)c2)cc1Cl` [Example 48, 1-[(3,4-dichlorophenyl)methyl]-4-{1H-[1,2,3]triazolo[4,5-c]pyridin-6-yl}-1H-imidazole], for which the 50% inhibitory concentration (IC50) was in the range of 1000 to 10000 nM.

`Clc1ccc(-n2cnc(-c3cc4[nH]nnc4cn3)c2)cc1` [Example 49, 1-(4-chlorophenyl)-4-{1H-[1,2,3]triazolo[4,5-c]pyridin-6-yl}-1H-imidazole] gave an IC50 of 1000 to 10000 nM.

Regarding `Clc1ccccc1-n1cnc(-c2cc3[nH]nnc3cn2)c1` [Example 50, 1-(2-chlorophenyl)-4-{1H-[1,2,3]triazolo[4,5-c]pyridin-6-yl}-1H-imidazole], the IC50 fell in the range of 1000 to 10000 nM.

The molecule `Clc1cccc(-n2cnc(-c3cc4[nH]nnc4cn3)c2)c1` [Example 51, 1-(3-chlorophenyl)-4-{1H-[1,2,3]triazolo[4,5-c]pyridin-6-yl}-1H-imidazole] had an IC50 of 1000 to 10000 nM.
